According to publication PMC7144376, “Antiviral Effects of Novel 2-Benzoxyl-Phenylpyridine Derivatives” (Molecules, 2020):

Tests used:
[1] = test system: CVB3; assay: CVB3 progeny virus yield in Hep-2 cells (TCID50 titration); type: cell-based, Coxsackievirus B3; conditions: 36 h, 120 μM W-9, 160 μM W-13, 160 μM W-15, 160 μM ribavirin
Experimental: (§1) Based on their antiviral activities and therapeutic selectivity indices, the effects on virus progeny yields of compounds W9, W13, and W15 were further investigated, using ribavirin as a positive control drug. To this end, confluent monolayers of Hep-2 or HeLa cells in 96-well plates were infected with 100 × median tissue culture infective dose (TCID50) of CVB3 or ADV7, then treated with 120 μM W-9, 160 μM W-13, 160 μM W-15, or 160 μM ribavirin. After 36 h, culture media and cell lysates were collected, following freeze-thaw cycles, and then subjected to virus titration.
(§2) Figure 2 The effects of W9, W13, and W15 on progeny virus production. Hep-2 cells infected with 100 TCID50 of CVB3 (a), or HeLa cells infected with 100 TCID50 of ADV7(b), were incubated in the absence (virus control) or presence of 120 μM W-9, 160 μM W-13, 160 μM W-15, or 160 μM ribavirin for 36 h, and the culture media and cell lysates then harvested for virus titration. Viral titers are presented as Log10 TCID50/mL. * p < 0.05; ** p < 0.01, compared with the virus control group.
(§3) CVB3 or ADV7 suspensions, serially diluted 10-fold with DMEM containing 2% FBS (DMEM maintenance medium, MM), were inoculated to Hep-2 or HeLa cells in 96-well plates. After 1.5 h incubation at 37 °C in 5% CO2, unbound virus was washed out and the MM was added to the cells. After 2 days, infected cells were monitored for CPEs and virus titers were calculated using the Reed–Muench method.

[2] = test system: ADV7; assay: ADV7 progeny virus yield in HeLa cells (TCID50 titration); type: cell-based, adenovirus type 7; conditions: 36 h, 120 μM W-9, 160 μM W-13, 160 μM W-15, 160 μM ribavirin
Experimental: as §1, §2, §3

[3] = test system: CVB3; assay: Viral adsorption/entry analysis; type: cell-based, Coxsackievirus B3; conditions: Hep-2 cells, CVB3 10^6 TCID50, 2 h adsorption; 120 μM W-9, 160 μM W-13, W-15, ribavirin
Experimental: (§4) Figure 3 Analysis of the modes of action of W9, W13, and W15 against CVB3. (a) Analysis of effective stage. The antiviral effects of test compounds against CVB3 were detected by measuring cell viability after 48 h of infection when cells were treated with W9, W13, or W15 before, simultaneously, or after inoculation with CVB3 (100 TCID50). (b) Analysis of the effects on CVB3 adsorption. Mock-, 120 μM W-9-, 160 μM W-13-, 160 μM W-15-, or 160 μM ribavirin-treated CVB3 (10^6 TCID50) was inoculated onto Hep-2 cells and adsorbed for 2 h. Infected cells were then harvested and subjected to virus titration, using the TCID50 method. (c) The effects of test compounds on CVB3 release from Hep-2 cells. Hep-2 cells infected with 100 TCID50 of CVB3 were incubated with test compounds for 12 h, then cells and culture supernatants (intra- and extracellular) analyzed for virus yield, separately or together. Mock, no infection; VC, virus control. Values represent the means ± SDs of three independent experiments. * p < 0.05; ** p < 0.01, compared with the virus control group.
To this end, Hep-2 cells were mock-treated or inoculated with CVB3 (10^6 TCID50) treated with 120 μM W-9, 160 μM W-13, 160 μM W-15, or 160 μM ribavirin, and adsorbed for 2 h. Infected cells were then harvested and subjected to virus titration, using the TCID50 method.
Cells were infected with CVB3 (10^6 TCID50) containing 120 μM W-9, 160 μM W-13, 160 μM W-15, or 160 μM ribavirin, after 2 h adsorption at 37 °C, inocula were discarded, and the cells were washed three times with phosphate buffered saline (PBS), harvested, following three freeze-thaw cycles, and subjected to virus titration. Cells infected with CVB3 in the absence of test compounds were used as untreated virus-infected controls.

[4] = test system: CVB3; assay: Viral release analysis; type: cell-based, Coxsackievirus B3; conditions: Hep-2 cells, 12 h; intra- and extracellular titers; 120 μM W-9, 160 μM W-13, W-15, ribavirin
Experimental: as §4
The viral life cycle is completed by release of progeny for further infection of neighboring cells. Therefore, we tested whether viral release from cells is affected by W9, W13, and W15. Hep-2 cells infected with 100 TCID50 of CVB3 were incubated with test compounds for 12 h, then both cells and supernatants (intra- and extracellular), or one of which was harvested separately, and virus yields were determined. Ribavirin was used as the positive control.
Hep-2 cells were treated with or without 120 μM W-9, 160 μM W-13, 160 μM W-15, or 160 μM ribavirin after infection with 100 TCID50 of CVB3. Supernatants and cells were harvested together or separately for the determination of progeny virus yields at 12 h pi by the Reed–Muench method.

[5] = test system: CVB3; assay: Time of (drug) addition experiment; type: cell-based, Coxsackievirus B3; conditions: compound present −1–10, 0–10 or 2–10 h; yield at 12 h pi; 120 μM W-9, 160 μM W-13, W-15, ribavirin
Experimental: To further elucidate the mechanisms underlying the activities of W9, W13, and W15 against CVB3 propagation in cells, we conducted a time-of-addition experiment. Briefly, 120 μM W-9, or 160 μM W-13, W-15 or ribavirin, were added to Hep-2 cells at different time periods following CVB3 infection and progeny virus yield was determined at 12 h post-infection (pi). […] In contrast, when compounds were added during the 4–10 h stage after viral infection, production of viral progeny increased somewhat, however, compared with the virus control group, the inhibition effect was still clear. Drug treatments during other periods following CVB3 infection led to a gradual increase in viral yields, reflecting a loss of antiviral effects.
Figure 4 Time-of-addition assay. 120 μM W-9, or 160 μM W-13, W-15, or ribavirin, were added to Hep-2 cells for different time periods after CVB3 infection. Progeny virus yield was determined at 12 h post-infection ((−1)–0 h, viral infection period; 0–10 h, period of virus proliferation in cells). Values are presented as means ± SDs. * p < 0.05; ** p < 0.01, compared with the virus control group.
Hep-2 cells were infected with 100 TCID50 of CVB3 and then 120 μM W-9, 160 μM W-13, 160 μM W-15, or 160 μM ribavirin were added for different time periods (−1–0, 0–10, 2–10, 4–10, 6–10, 8–10, or −1–10 h pi, where –1–0 h is the viral infection period and 0–10 h is the period of virus proliferation in the cells). Cells and culture supernatants were harvested at 12 h pi and subjected to three freeze-thaw cycles, after which virus titers were determined by the Reed–Muench method.

| SMILES | reduction in CVB3 virus progeny titer relative to untreated control [1] | reduction in ADV7 virus progeny titer relative to untreated control [2] | virus titer during virus attachment (adsorption/entry) [3] | effect on CVB3 release from cells [4] | progeny virus titer in time-of-addition assay [5] |
| --- | --- | --- | --- | --- | --- |
| CC(=O)Oc1ccc(-c2ccccn2)c(OC(=O)c2ccccc2)c1 [W15] | approximately 2.5 log | approximately 2.0 log | no significant decrease in virus titer | do not act on viral release from cells | progeny virus titers were reduced |
| O=C(Oc1cc(Cl)ccc1-c1ccccn1)c1ccccc1 [W9] | approximately 2.5 log | approximately 2.0 log | no significant decrease in virus titer | do not act on viral release from cells | progeny virus titers were reduced |
| NC(=O)c1ncn([C@@H]2O[C@H](CO)[C@@H](O)[C@H]2O)n1 [Ribavirin, reference compound] | approximately 2.0 log | ~1.7 log | no significant decrease in virus titer | do not act on viral release from cells | very similar effects |
| Cc1ccc(OC(=O)C(C)(C)C)c(-c2ccccn2)c1 [W13] | approximately 2.5 log | approximately 2.0 log | no significant decrease in virus titer | do not act on viral release from cells | progeny virus titers were reduced |
